Tests used:
[1] = Absorption in a Caco-2 cells model; type: in vitro ADME; settings: human
Protocol: (§1) Absorption of the compounds of formula (I) was tested in a Caco-2 cells model (Gastroenterology 1989, 96, 736): […]

Caco-2 cells = assay: Absorption in a Caco-2 cells model; type: in vitro ADME
Protocol: as §1

[2] = test system: ^14C-cholesterol absorption; assay: In vivo testing of cholesterol absorption inhibitors (A); set-up: species or system C57BL/6 female mice; settings: procedure A, gavage, mice
Protocol: In vivo Testing of Cholesterol Absorption Inhibitors (A)
C57BL/6 female mice were maintained on regular chow diet and housed in individual cages to collect faeces. Mice were fasted for 3 hours and then gavaged with vehicle or compound. Half an hour later the mice were gavaged with radiolabelled cholesterol. Six hours after the ^14C-cholesterol gavage blood samples were taken via the tail and plasma prepared to determine how much cholesterol were absorbed. 24 hours after the gavage of ^14C-cholesterol the mice were bled and plasma were prepared for analysis. Faeces were collected for 24 hours to assess absorption efficiency.

SMILES: CC(C)[C@@H](NC(=O)CNC(=O)COc1ccc([C@@H]2[C@@H](SCC(O)c3ccc(F)cc3)C(=O)N2c2ccc(F)cc2)cc1)C(=O)O (stereo partly drawn) [Example 23, N-{[4-((2R,3R)-1-(4-fluorophenyl)-3-{[2-(4-fluorophenyl)-2-hydroxyethyl]thio}-4-oxoazetidin-2-yl)phenoxy]acetyl}glycyl-D-valine]
- Papp [1]: 0.06 ×10⁻⁶ cm/s

SMILES: O=C(COc1ccc([C@@H]2[C@@H](SCC(O)c3ccc(F)cc3)C(=O)N2c2ccc(F)cc2)cc1)NCC(=O)N[C@H](Cc1ccc(O)cc1)C(=O)O (stereo partly drawn) [Example 26, N-{[4-((2R,3R)-1-(4-fluorophenyl)-3-{[2-(4-fluorophenyl)-2-hydroxyethyl]thio}-4-oxoazetidin-2-yl)phenoxy]acetyl}glycyl-D-tyrosine]
- Papp [1]: 0.07 ×10⁻⁶ cm/s

SMILES: NCCCC[C@@H](NC(=O)CNC(=O)COc1ccc([C@@H]2[C@@H](SCC(O)c3ccc(F)cc3)C(=O)N2c2ccc(F)cc2)cc1)C(=O)O (some centres unmarked) [Example 29]
- Caco value (Caco-2 cells): 0.2 ×10⁻⁶ cm/s

SMILES: O=C(COc1ccc([C@@H]2[C@@H](SCC(O)c3ccc(F)cc3)C(=O)N2c2ccc(F)cc2)cc1)NCC(=O)N[C@H](CC1CCCC1)C(=O)O (stereo partly drawn) [Example 85, N-{[4-((2R,3R)-1-(4-fluorophenyl)-3-{[2-(4-fluorophenyl)-2-hydroxyethyl]thio}-4-oxoazetidin-2-yl)phenoxy]acetyl}glycyl-3-cyclopentyl-D-alanine]
- inhibition of ^14C-cholesterol absorption ([2]; 0.2 μmol/kg): 47%

SMILES: NCCC[C@@H](NC(=O)CNC(=O)COc1ccc([C@@H]2[C@@H](SCC(O)c3ccc(F)cc3)C(=O)N2c2ccc(F)cc2)cc1)C(=O)O (stereo partly drawn) [Example 91, N-{[4-((2R,3R)-1-(4-fluorophenyl)-3-{[2-(4-fluorophenyl)-2-hydroxyethyl]thio}-4-oxoazetidin-2-yl)phenoxy]acetyl}glycyl-D-ornithine]
- inhibition of ^14C-cholesterol absorption ([2]; 0.2 μmol/kg): 58%

SMILES: O=C(COc1ccc([C@@H]2[C@@H](SCC(O)c3ccc(F)cc3)C(=O)N2c2ccc(F)cc2)cc1)N[C@@H](C(=O)N[C@@H](CO)C(=O)O)c1ccccc1 (stereo partly drawn) [Example 94, 1-(4-Fluorophenyl)-3-(R)-[2-(4-fluorophenyl)-2-hydroxyethylthio]-4-(R)-{4-[N-(α-(R)-{N-[2-(hydroxy)-1-(S)-(carboxy)ethyl]carbamoyl}benzyl)carbamoylmethoxy]phenyl}azetidin-2-one]
- inhibition of ^14C-cholesterol absorption ([2]; 5 μmol/kg): 89%

SMILES: O=C(COc1ccc([C@@H]2[C@@H](SCC(O)c3ccc(F)cc3)C(=O)N2c2ccc(F)cc2)cc1)NCC(=O)N[C@H](CO)C(=O)O (stereo partly drawn) [Example 96, 1-(4-Fluorophenyl)-3-(R)-[2-(4-fluorophenyl)-2-hydroxyethylthio]-4-(R)-{4-[N-{N-[2-(hydroxy)-1-(R)-(carboxy)ethyl]carbamoylmethyl}carbamoylmethoxy]phenyl}azetidin-2-one]
- inhibition of ^14C-cholesterol absorption ([2]; 5 μmol/kg): 87%

SMILES: O=C(COc1ccc([C@@H]2[C@@H](SCC(O)c3ccc(F)cc3)C(=O)N2c2ccc(F)cc2)cc1)NCC(=O)N[C@H](Cc1ccccc1)C(=O)O (stereo partly drawn) [Example 97, 1-(4-Fluorophenyl)-3-(R)-[2-(4-fluorophenyl)-2-hydroxyethylthio]-4-(R)-{4-[N-{N-[2-(phenyl)-1-(R)-(carboxy)ethyl]carbamoylmethyl}carbamoylmethoxy]phenyl}azetidin-2-one]
- Caco value (Caco-2 cells): 0.09 ×10⁻⁶ cm/s
